The text below walks through data of ChEMBL document CHEMBL4765458, “Synthesis and biological evaluation of organoselenium (NSAIDs-SeCN and SeCF) derivatives as potential anticancer agents” (Eur J Med Chem, 2020).

A short description of assay [1]: Antioxidant activity assessed as GPx-like activity by measuring oxidation of NADPH to NADP+ by NADPH-reductase coupled assay. It counts as functional.
The subject of assay [2] is SW480. The assay is described as follows: Cytotoxicity against human SW480 cells assessed as reduction in cell viability measured after 24 hrs by MTT assay. It counts as functional, cell-based. The note with it: SW480, 24 h. A general note: Formazan colour is commonly taken as a measure of viable cells.
For assay [3], the system named is SW480. Kind of assay: Cytotoxicity against human SW480 cells assessed as reduction in cell viability measured after 48 hrs by MTT assay. It counts as functional, cell-based. The note with it: SW480, 48 h.
Assay [4] deals with SW480. Kind of assay: Cytotoxicity against human SW480 cells assessed as reduction in cell viability measured after 72 hrs by MTT assay. It counts as functional, cell-based. The note with it: SW480, 72 h.
The subject of assay [5] is HeLa. Kind of assay: Cytotoxicity against human HeLa cells assessed as reduction in cell viability measured after 24 hrs by MTT assay. It counts as functional, cell-based.
Assay [6] deals with HeLa. Kind of assay: Cytotoxicity against human HeLa cells assessed as reduction in cell viability measured after 48 hrs by MTT assay. It counts as functional, cell-based.
Assay [7] deals with HeLa. Kind of assay: Cytotoxicity against human HeLa cells assessed as reduction in cell viability measured after 72 hrs by MTT assay. Format: functional, cell-based.
Assay [8] deals with A549. The assay is described as follows: Cytotoxicity against human A549 cells assessed as reduction in cell viability measured after 24 hrs by MTT assay. Format: functional, cell-based. To be noted: A549, 24 h.
Assay [9] deals with A549. The assay is described as follows: Cytotoxicity against human A549 cells assessed as reduction in cell viability measured after 72 hrs by MTT assay. It counts as functional, cell-based. The note with it: A549, 72 h.
For assay [10], the system named is MCF7. The assay is described as follows: Cytotoxicity against human MCF7 cells assessed as reduction in cell viability measured after 24 hrs by MTT assay. It counts as functional, cell-based. To be noted: MCF7, 24 h.
The subject of assay [11] is MCF7. Kind of assay: Cytotoxicity against human MCF7 cells assessed as reduction in cell viability measured after 48 hrs by MTT assay. It counts as functional, cell-based. The note with it: MCF7, 48 h.
The test system of assay [12] is MCF7. Kind of assay: Cytotoxicity against human MCF7 cells assessed as reduction in cell viability measured after 72 hrs by MTT assay. Format: functional, cell-based. The note with it: MCF7, 72 h.
For assay [13], the system named is MCF7. Kind of assay: Induction of apoptosis in human MCF7 cells assessed as down regulation of Bcl-2 expression at IC50 measured after 48 hrs by ELISA relative to control. Format: functional. A general note: ELISA stands for enzyme-linked immunosorbent assay.
The subject of assay [14] is MCF7. The assay is described as follows: Induction of apoptosis in human MCF7 cells assessed as up regulation of IL-2 expression at IC50 measured after 48 hrs by ELISA relative to control. Format: functional.
In assay [15] the test system is MCF7. The assay is described as follows: Induction of apoptosis in human MCF7 cells assessed as up regulation of caspase-3 expression at IC50 measured after 48 hrs by ELISA relative to control. It counts as functional.
Assay [16] can be described thus: Antioxidant activity assessed as DPPH radical scavenging activity incubated for 30 mins under dark condition relative to control. Further details: concentration or dose not given beside the values. It counts as functional. In general terms: DPPH is a stable violet radical that fades when it is reduced.
For assay [17], the system named is A549. Kind of assay: cells. To be noted: Homo sapiens, A549, 48 h.
Description: Cytotoxicity against human A549 cells assessed as reduction in cell viability measured after 48 hrs by MTT assay
The nature of assay [18]: Antioxidant activity assessed as bleomycin-Fe2+-induced DNA degradation by measuring absorbance at 0.1 mg/ml after 1 hr. Format: functional.

Activity calls are given as the source filed them. The calls are words filed in the database; no cut-off is given here.

The term IC50 denotes the concentration needed to halve the response being measured. Broadly, the inhibition is the percentage by which the read-out fell short of the control. `CC(C)Cc1ccc(C(C)C(=O)NCCC[Se]C#N)cc1` (stereo not given): the result in [1], in assay [13] and in assay [15] was Active. The half-inhibitory concentration (IC50) in assay [2] is 8.9 µM; in [3] it was 5.3 µM; in assay [4], 6.4 µM; in assay [5], 13.5 µM; in assay [6] it was 26.3 µM; in assay [7] it was 29.3 µM. Moreover, the IC50 in assay [8] was determined as 24.4 µM; in [9], 28.5 µM; in assay [10], 12.1 µM; in assay [11], 14.3 µM; in [12], 16.5 µM; in assay [17], 30.2 µM. Also, the “fold change (FC)” value in assay [14] is listed as 1.5. For the same molecule, the inhibition in assay [16] was 60.8%.

Turning to `CC(=O)Oc1ccccc1C(=O)NCCC[Se]C#N`, the outcome in [1], in assay [13], in assay [14] and in assay [15] was Active. In addition, the IC50 in assay [2] was 9.3 µM; in assay [3], 7.4 µM; in [4] it was 8.2 µM; in [5], 31.4 µM; in assay [6], 28.4 µM; in assay [7] it was 18.3 µM. The IC50 amounted to 18.4 µM in assay [8]; 22.3 µM in assay [9]; 6.8 µM in assay [10]; 8.6 µM in assay [11]; 10.3 µM in assay [12]; 22.6 µM in assay [17]. In addition, the inhibition in [16] was 52.1%.

For the molecule `O=C1O[C@H]([C@@H](O)CO)C(O)=C1O`, the inhibition in assay [16] was 92.4%. In [18], the deltaA was found to be 295.

As to `CC(C(=O)NCCC[Se]C(F)(F)F)c1ccc(-c2ccccc2)c(F)c1` (stereo not given), the outcome in [1] was Active. For the same molecule, the IC50 amounted to 18.3 µM in assay [2]; 24.4 µM in assay [3]; 19.5 µM in assay [4]; 30.2 µM in [5]; 28.4 µM in assay [6]; 14.9 µM in assay [7]. In addition, the IC50 in [8] is 14.5 µM; in assay [9], 35.4 µM; in assay [10], 12.1 µM; in assay [11] it was 17.1 µM; in assay [12], 18.5 µM; in [17] it was 23.2 µM. In assay [16], the inhibition came to 40.5%.

As for `CC(=O)Oc1ccccc1C(=O)NCCC[Se]C(F)(F)F`, the result in [1] and in [14] was Active. Moreover, the half-maximal inhibitory concentration (IC50) came to 8.2 µM in assay [2]; 7.2 µM in [3]; 7.8 µM in assay [4]; 28.7 µM in assay [5]; 26.3 µM in assay [6]; 15.4 µM in assay [7]. The IC50 in [8] was 16.4 µM; in [9], 17.3 µM; in [10], 3.5 µM; in [11], 4.2 µM; in assay [12], 4.4 µM; in assay [17], 18.6 µM. Further, the Activity in assay [13] is on record as >50%. The “fold change (FC)” value in [15] is 5. Further, in [16], the inhibition came to 72.5%.

For `CC(C)Cc1ccc(C(C)C(=O)NCCC[Se]C(F)(F)F)cc1` (stereo not given), the result in assay [1], in assay [14] and in assay [15] was Active. The IC50 came to 4.9 µM in [2]; 3.3 µM in assay [3]; 4.2 µM in assay [4]; 11.5 µM in assay [5]; 17.4 µM in [6]; 19.7 µM in assay [7]. For the same molecule, the IC50 in assay [8] is 9.4 µM; in assay [9], 18.5 µM; in assay [10], 3.4 µM; in assay [11], 4.3 µM; in assay [12], 2.8 µM; in assay [17], 15.2 µM. Further, in assay [13], the Activity is >50%. Also, in assay [16], the inhibition turned out to be 68.7%.

`Cc1cccc(Nc2ccccc2C(=O)NCCC[Se]C#N)c1C`: the 50% inhibitory concentration (IC50) in [2] was 14.4 µM; in assay [3] it was 9.7 µM; in assay [4] it was 13.2 µM; in assay [5], 26.5 µM; in assay [6], 34.3 µM; in assay [7], > 50 µM. In addition, the half-maximal inhibitory concentration (IC50) in assay [8] is 37.3 µM; in assay [9] it was > 50 µM; in [10] it was 18.5 µM; in assay [11] it was 11.2 µM; in assay [12], 7.9 µM; in [17] it was > 50 µM. Also, the inhibition in assay [16] is 26.5%.

`COc1ccc2c(c1)c(CC(=O)NCCC[Se]C(F)(F)F)c(C)n2C(=O)c1ccc(Cl)cc1`: the 50% inhibitory concentration (IC50) is 14.6 µM in assay [2]; 16.4 µM in assay [3]; 13.1 µM in assay [4]; 30.1 µM in assay [5]; 21.4 µM in [6]; 15.6 µM in assay [7]. In addition, the half-maximal inhibitory concentration (IC50) in [8] turned out to be 18.3 µM; in assay [9], 30.3 µM; in assay [10], 17.3 µM; in assay [11] it was 26 µM; in assay [12], 35 µM; in [17] it was 26.5 µM. The inhibition in [16] was 25.8%.

As to `C[C@H](C(=O)NCCC[Se]C(F)(F)F)c1cccc(C(=O)c2ccccc2)c1`, the result in [1] was Active. The half-inhibitory concentration (IC50) in assay [2] is 8.2 µM; in [3], 7.4 µM; in assay [4] it was 6.5 µM; in assay [5], 19.6 µM; in assay [6] it was 17.5 µM; in assay [7], 28.7 µM. In addition, the half-inhibitory concentration (IC50) was 13.1 µM in assay [8]; 22.6 µM in [9]; 8.6 µM in [10]; 9.3 µM in assay [11]; 9.5 µM in [12]; 18.4 µM in assay [17]. Moreover, in assay [16], the inhibition was 48.4%.

`CCc1cccc2c3c([nH]c12)C(CC)(CC(=O)NCCC[Se]C(F)(F)F)OCC3` (stereo not given): the half-inhibitory concentration (IC50) in assay [2] worked out at 17.5 µM; in assay [3], 14.5 µM; in assay [4] it was 19.6 µM; in [5], 22.8 µM; in [6], 14.4 µM; in assay [7], 25.5 µM. For the same molecule, the IC50 was 19.4 µM in [8]; 26.6 µM in assay [9]; 26.2 µM in assay [10]; 28.4 µM in [11]; 33.5 µM in assay [12]; 17.7 µM in [17]. The inhibition in assay [16] amounted to 26.8%.

For the molecule `CC1=C(CC(=O)NCCC[Se]C(F)(F)F)c2cc(F)ccc2/C1=C\c1ccc([S+](C)[O-])cc1` (stereo not given), the IC50 was 13.4 µM in assay [2]; 11.4 µM in assay [3]; 10.1 µM in assay [4]; 24.3 µM in [5]; 15.1 µM in assay [6]; 19.4 µM in assay [7]. In addition, the IC50 in assay [8] came out at 9.4 µM; in [9], 7.4 µM; in assay [10], 8.2 µM; in assay [11] it was 6.4 µM; in assay [12], 10.4 µM; in assay [17], 11.3 µM. Moreover, the inhibition in [16] amounted to 32.8%.
